Results: article PMC9436958, “The synthesis of novel thioderivative chalcones and their influence on NF-κB, STAT3 and NRF2 signaling pathways in colorectal cancer cells” (Scientific Reports, 2022)

Tests used:
Type in all cases: cell-based
DLD-1 cells [1] = test: Apoptosis, Annexin V / 7-AAD flow cytometry, DLD-1; conditions: 48 h; for induction of apoptosis: mainly early and total apoptotic populations enriched
Procedure: (§1) Apoptosis was assessed by the detection of phosphatidylserine externalization based on Annexin V staining combined with fluorescent DNA intercalator 7-Aminoactinomycin D (7-AAD) what allowed for the discrimination between early and late apoptotic cells. The analysis was performed by flow cytometry using the Muse Annexin V & Dead Cell Kit (Luminex, USA) and the Muse Cell Analyzer (Merck, Germany), according to the manufacturer’s protocol. Cells were seeded (2 × 10^5 cells per well) in six-well plates and on the following day the analyzed compounds were added. Topotecan (Sigma-Aldrich, USA) was used as a positive control of apoptosis induction. After 48 h cells were collected by trypsinization, stained and after 20 min incubation at room temperature in the dark analyzed by flow cytometry. Three independent experiments were performed. Data were analyzed by Muse 1.5 Analysis Software (Merck, Germany).

HCT116 cells [2] = test: Apoptosis, Annexin V / 7-AAD flow cytometry, HCT116; conditions: 48 h; for induction of apoptosis: increase of early, late and total apoptosis
Procedure: as §1

[3] = MTT viability assay, normal HaCaT cells; conditions: HaCaT cells (spontaneously immortalized keratinocytes), normal human HaCaT cells, read-out: IC50, cytotoxicity
Procedure: (§2) The DLD-1 and HCT116 colorectal carcinoma cell lines were purchased from ECACC. The HaCaT cell line of spontaneously immortalized keratinocytes was purchased from Cell Lines Service (Germany). The cells were cultured in Dulbecco’s Modified Eagle’s Medium (DMEM, Sigma-Aldrich, USA) with the addition of 10% FBS (EURx, Poland) and 1% antibiotic solution (penicillin and streptomycin) (Sigma-Aldrich, USA) at 37 °C in an atmosphere with 95% humidity and 5% CO2.
(§3) The effect of the tested compounds on the viability of DLD-1, HCT116 and HaCaT cells was assessed by the MTT assay according to the standard protocol.

STAT3 [4] = test: qRT-PCR, STAT3 mRNA; conditions: DLD-1 cells; 2, 5 at 5 μM, 4 at 1 μM
Procedure: (§4) Total RNA from cells was isolated with the GeneMatrix Universal DNA/RNA/Protein Purification Kit (EurX, Poland). For the qRT-PCR analyses, the Maxima SYBR Green I/ROX qPCR Master Mix (2×) (Thermo Fisher Scientific, USA) and the thermal cycler LightCycler (Roche, Germany) were used. The protocol started with 5 min of enzyme activation at 95 °C, followed by 40–50 cycles at 95 °C for 15 s, 56 °C for 20 s, 72 °C for 40 s, and final elongation at 72 °C for 5 min. Melting curve analysis was used for amplicon verification. The expression levels of TATA-box-binding protein (TBP) and porphobilinogen deaminase (PBGD) were used to normalize the data. The Pfaffl comparative method was used to calculate fold change. Primers were designed using Beacon Designer software (the sequences of primers used to analyze genes are listed in Table 2 of the supplementary materials).

p-Akt = test: Western blot, p-Akt (Ser 473) protein in cytosolic fraction; conditions: 2, 5 at 5 μM, 4 at 1 μM
Procedure: (§5) Cytosolic and nuclear extracts were prepared using a Nuclear/Cytosol Fractionation Kit (BioVision Research, USA). Cytosolic extracts (for NF-κBp65, NF-κBp50, COX-2, iNOS, STAT3, c-Myc, Bcl-xl, Nrf2, SOD, GSTP, EGFR, Akt, p-Akt, Keap1, IKKα/β and β-actin) or nuclear extracts (for NF-κBp65, NF-κBp50, STAT3, p-STAT3, Nrf2, p-Nrf2 and lamin) were separated on 7.5%, 10% or 12% SDS–PAGE slab gels. Then, the proteins were transferred to a nitrocellulose Immobilon-P membrane. After blocking for 2 h with 10% skimmed milk, proteins were incubated with primary antibodies against NF-κBp65, NF-κBp50, COX-2, iNOS, STAT3, p-STAT3, c-Myc, Bcl-xl, Nrf2, p-Nrf2, SOD, GSTP, EGFR, Akt, p-Akt, Keap1, IKKα/β, β-actin, and lamin. Alkaline phosphatase (AP)-labeled anti-rabbit IgG, anti-goat IgG, and anti-mouse IgG secondary antibodies (Bio-Rad Laboratories, USA), as well as horseradish peroxidase (HRP)-conjugated anti-mouse IgG (Boster Bio, USA) secondary antibodies were used in the staining reaction. Bands were visualized by the AP Conjugate Substrate Kit NBT/BCIP or the chemiluminescent HRP substrate of the Clarity ECL Kit (Bio–Rad Laboratories, USA). The amount of immunoreactive product in each lane was determined using a ChemiDoc Imaging System (Bio–Rad Laboratories, USA). Values were calculated as relative absorbance units (RQ) per mg of protein and expressed as a percentage of the control.

HCT116 cells [5] = test: MTT viability assay, HCT116 cells; conditions: Homo sapiens, HCT-116, range 0.5–100 µM, read-out: IC50, cytotoxicity
Procedure: as §2, §3

STAT3 [6] = test: Transcription factor ELISA, STAT3 binding to DNA; conditions: 2, 5 at 5 μM, 4 at 1 μM; for binding of STAT3 to DNA: HCT116 cells; for decrease in the binding of STAT3 to DNA: nuclear fraction of DLD-1 cells
Procedure: (§6) To estimate NF-ΚB (p50 and p65 subunits) STAT3 and Nrf2 activation, enzymatic immunoassays with the Transcription Factor ELISA Kit (TransAM™NF-κB, TransAM™STAT3/TransAM™Nrf2, Active Motif, Carlsbad CA, USA) were used following the manufacturer’s protocol. Briefly, proper consensus-site double-strand oligonucleotides (NF-κB—5′-GGGACTTTCC-3′; STAT3-5’—TTCCCGGAA-3’; Nrf2-5ʹ—[…]-3ʹ) were immobilized on an ELISA plate and incubated for one hour with the nuclear extracts. The activated subunits bound to DNA were recognized with a specific primary antibody and detected with an HRP-conjugated secondary antibody. The number of subunits was determined by spectrophotometry at λ = 450 nm. The number of p50, and p65 subunits, STAT3, as well as the amount of Nrf2 contained in the DNA-binding complex, corresponded to the activated NF-κB, STAT3, or Nrf2 transcription factors.

DLD-1 cells [7] = test: MTT viability assay, DLD-1 cells; conditions: Homo sapiens, range 0.5–100 µM, read-out: IC50, cytotoxicity
Procedure: as §2, §3

Bcl-xl = Bcl-xl expression (qRT-PCR mRNA, Western blot protein); conditions: HCT116 cells, 5 at 5 μM; for Bcl-xl transcription: 4 at 1 μM
Procedure: as §5, §4

Nrf2 = test: Transcription factor ELISA, Nrf2 binding to DNA
Procedure: as §6

EGFR = test: Western blot, EGFR protein in cytosolic fraction; conditions: 4 at 1 μM
Procedure: as §5

[8] = doubled concentration: 4 at 2 μM, 5 at 10 μM
[9] = HCT116 cells, 4 at 1 μM, 2, 5, 6, 7 at 5 μM

Row | Structure (SMILES) | total apoptotic cells compared with BAY 11-7082 (5 µM) (DLD-1 cells [1]; 5 in higher concentration) | induction of apoptosis (DLD-1 cells [1]) | late and total apoptosis compared with BAY 11-7082 (5 µM) (HCT116 cells [2]; [8]) | induction of apoptosis (HCT116 cells [2]) | late and total apoptosis compared with BAY 11-7082 (5 µM) (HCT116 cells [2]; standard concentration: 5 at 5 μM) | IC50 [3] | STAT3 gene expression (mRNA) (STAT3 [4]) | phosphorylation of p-Akt (Ser 473) (p-Akt; DLD-1 cells) | phosphorylation of p-Akt (Ser 473) (p-Akt; HCT116 cells) | IC50 (HCT116 cells [5]) | binding of STAT3 to DNA (STAT3 [6]) | decrease in the binding of STAT3 to DNA (STAT3 [6]) | IC50 (DLD-1 cells [7]) | Bcl-xl transcription (Bcl-xl) | Bcl-xl protein level (Bcl-xl) | Nrf2 binding to a specific nucleotide sequence (ELISA) (Nrf2; DLD-1 cells, 1 at 1 μM, 3, 5, 7, 8 at 5 μM) | Nrf2 binding to a specific nucleotide sequence (ELISA) (Nrf2; [9]) | level of EGFR (EGFR; DLD-1 cells, 2, 5 at 5 μM) | level of EGFR (EGFR; HCT116 cells)
1 | COc1cc(/C=C/C(=O)c2cc(Br)c(SC)c(OC)c2)ccc1SC [chalcone 5] | comparable effect | able to induce apoptosis | higher percentage of late and total apoptosis than BAY 11-7082 | able to induce apoptosis | higher percentage of late and total apoptosis than BAY 11-7082 | 14 µM | decreased | significantly reduced phosphorylation of p-Akt | significantly reduced phosphorylation of p-Akt | 13 µM | decreased the binding of STAT3 to DNA | 20% | 11 µM | decreased Bcl-xl transcription | correlated with Bcl-xl protein level | statistically significant increase | statistically significant increase | significantly decreased the level of EGFR | –
2 | COc1cc(C(=O)/C=C/c2cccc(SC)c2)cc(Br)c1OC [chalcone 4] | – | able to induce apoptosis | higher percentage of late and total apoptosis than BAY 11-7082 | able to induce apoptosis | – | 3 µM | decreased | significantly reduced phosphorylation of p-Akt | significantly reduced phosphorylation of p-Akt | 20 µM | decreased the binding of STAT3 to DNA | 30% | 2 µM | decreased Bcl-xl transcription | – | – | statistically significant increase | significantly decreased the level of EGFR | significantly decreased the level of EGFR
